Source: ChEMBL document CHEMBL5126592, “Design, synthesis and activity against drug-resistant bacteria evaluation of C-20, C-23 modified 5-O-mycaminosyltylonolide derivatives” (Eur J Med Chem, 2022)
Values after ≈ are worked out from the molar mass of the structure shown.

Assays:
Type in all cases: functional
Details in all cases: time 16-20 hrs
Pseudomonas aeruginosa = test: Antibacterial activity against Pseudomonas aeruginosa LTP-3 incubated for 16 to 20 hrs by broth microdilution method
Klebsiella pneumoniae = test: Antibacterial activity against Klebsiella pneumoniae ATCC 13883 incubated for 16 to 20 hrs by broth microdilution method
Escherichia coli [1] = test: Antibacterial activity against Escherichia coli incubated for 16 to 20 hrs by broth microdilution method
Cronobacter sakazakii = test: Antibacterial activity against Cronobacter sakazakii ATCC 29544 incubated for 16 to 20 hrs by broth microdilution method
Enterococcus faecium = test: Antibacterial activity against Enterococcus faecium incubated for 16 to 20 hrs by broth microdilution method
[2] = test system: Staphylococcus chromogenes; test: Antibacterial activity against Staphylococcus chromogenes incubated for 16 to 20 hrs by broth microdilution method
[3] = test system: Streptococcus dysgalactiae; test: Antibacterial activity against Streptococcus dysgalactiae incubated for 16 to 20 hrs by broth microdilution method
Escherichia coli [4] = test: Antibacterial activity against Escherichia coli ATCC 25922 incubated for 16 to 20 hrs by broth microdilution method
Staphylococcus aureus [5] = test: Antibacterial activity against Staphylococcus aureus ATCC 25923 incubated for 16 to 20 hrs by broth microdilution method
Staphylococcus aureus [6] = test: Antibacterial activity against Staphylococcus aureus incubated for 16 to 20 hrs by broth microdilution method

SMILES | MIC (Pseudomonas aeruginosa) [µg/mL] | MIC (Klebsiella pneumoniae) [µg/mL] | MIC (Escherichia coli [1]) [µg/mL] | MIC (Cronobacter sakazakii) [µg/mL] | MIC (Enterococcus faecium) [µg/mL] | MIC [2] [µg/mL] | MIC [3] [µg/mL] | MIC (Escherichia coli [4]) [µg/mL] | MIC (Staphylococcus aureus [5]) [µg/mL] | MIC (Staphylococcus aureus [6]) [µg/mL]
CC[C@H]1OC(=O)C[C@@H](O)[C@H](C)[C@@H](O[C@@H]2O[C@H](C)[C@@H](O)[C@H](N(C)C)[C@H]2O)[C@@H](CCN(Cc2ccccc2)Cc2cn(-c3cnc4ccccc4c3)nn2)C[C@@H](C)C(=O)/C=C/C(C)=C/[C@@H]1CO | 4 (≈ 4.46 µM) | 8 (≈ 8.92 µM) | 8 (≈ 8.92 µM) | 32 (≈ 35.7 µM) | 4 (≈ 4.46 µM) | 4 (≈ 4.46 µM) | 0.5 (≈ 0.557 µM) | 8 (≈ 8.92 µM) | 0.25 (≈ 0.279 µM) | 0.5 (≈ 0.557 µM)
CC[C@H]1OC(=O)C[C@@H](O)[C@H](C)[C@@H](O[C@@H]2O[C@H](C)[C@@H](O)[C@H](N(C)C)[C@H]2O)[C@@H](CCN(C)Cc2cn(-c3cnc4ccccc4c3)nn2)C[C@@H](C)C(=O)/C=C/C(C)=C/[C@@H]1CN(CC)CC | 2 (≈ 2.28 µM) | 1 (≈ 1.14 µM) | 4 (≈ 4.57 µM) | 4 (≈ 4.57 µM) | 2 (≈ 2.28 µM) | 1 (≈ 1.14 µM) | 0.5 (≈ 0.571 µM) | 2 (≈ 2.28 µM) | 0.125 (≈ 0.143 µM) | 0.5 (≈ 0.571 µM)
CC[C@H]1OC(=O)C[C@@H](O)[C@H](C)[C@@H](O[C@@H]2O[C@H](C)[C@@H](O)[C@H](N(C)C)[C@H]2O)[C@@H](CCN(C)Cc2cn(-c3cnc4ccccc4c3)nn2)C[C@@H](C)C(=O)/C=C/C(C)=C/[C@@H]1CN1CCCCCCC1 | 1 (≈ 1.09 µM) | 1 (≈ 1.09 µM) | 2 (≈ 2.18 µM) | 4 (≈ 4.37 µM) | 2 (≈ 2.18 µM) | 1 (≈ 1.09 µM) | 0.5 (≈ 0.546 µM) | 2 (≈ 2.18 µM) | 0.125 (≈ 0.136 µM) | 0.5 (≈ 0.546 µM)
CC[C@H]1OC(=O)C[C@@H](O)[C@H](C)[C@@H](O[C@@H]2O[C@H](C)[C@@H](O)[C@H](N(C)C)[C@H]2O)[C@@H](CC=O)C[C@@H](C)C(=O)/C=C/C(C)=C/[C@@H]1CO | 32 (≈ 53.5 µM) | > 32 | > 32 | > 32 | 1 (≈ 1.67 µM) | 1 (≈ 1.67 µM) | 1 (≈ 1.67 µM) | > 32 | 0.5 (≈ 0.836 µM) | 1 (≈ 1.67 µM)
CC[C@H]1OC(=O)C[C@@H](O)[C@H](C)[C@@H](O[C@@H]2O[C@H](C)[C@@H](O)[C@H](N(C)C)[C@H]2O)[C@@H](CCN(C)Cc2cn(-c3cnc4ccccc4c3)nn2)C[C@@H](C)C(=O)/C=C/C(C)=C/[C@@H]1CN(C)C | 2 (≈ 2.36 µM) | 2 (≈ 2.36 µM) | 2 (≈ 2.36 µM) | 4 (≈ 4.72 µM) | 1 (≈ 1.18 µM) | 0.5 (≈ 0.59 µM) | 2 (≈ 2.36 µM) | 2 (≈ 2.36 µM) | 0.25 (≈ 0.295 µM) | 0.25 (≈ 0.295 µM)
CN[C@H](CC(C)C)C(=O)N[C@H]1C(=O)N[C@@H](CC(N)=O)C(=O)N[C@H]2C(=O)N[C@H]3C(=O)N[C@H](C(=O)N[C@H](C(=O)O)c4cc(O)cc(O)c4-c4cc3ccc4O)[C@H](O)c3ccc(c(Cl)c3)Oc3cc2cc(c3O[C@@H]2O[C@H](CO)[C@@H](O)[C@H](O)[C@H]2O[C@H]2C[C@](C)(N)[C@H](O)[C@H](C)O2)Oc2ccc(cc2Cl)[C@H]1O [VANCOMYCIN] | 32 (≈ 22.1 µM) | 32 (≈ 22.1 µM) | > 32 | 32 (≈ 22.1 µM) | 16 (≈ 11 µM) | 8 (≈ 5.52 µM) | 16 (≈ 11 µM) | 32 (≈ 22.1 µM) | 0.25 (≈ 0.173 µM) | 
NC[C@H]1O[C@H](O[C@H]2[C@H](O)[C@@H](O[C@H]3O[C@H](CO)[C@@H](O)[C@H](N)[C@H]3O)[C@H](N)C[C@@H]2N)[C@H](N)C[C@@H]1O [TOBRAMYCIN] | 32 (≈ 68.4 µM) | 8 (≈ 17.1 µM) | > 32 | 16 (≈ 34.2 µM) | 32 (≈ 68.4 µM) | 2 (≈ 4.28 µM) | 16 (≈ 34.2 µM) | 8 (≈ 17.1 µM) | 8 (≈ 17.1 µM) | 1 (≈ 2.14 µM)
CCCN1C[C@H](C)[C@@H](O)[C@](C)(O)[C@@H](CC)OC(=O)[C@H](C)[C@@H](O[C@H]2C[C@](C)(OC)[C@H](O)[C@@H](C)O2)[C@H](C)[C@@H](O[C@@H]2O[C@H](C)C[C@H](N(C)C)[C@H]2O)[C@](C)(O)C[C@H]1C | 32 (≈ 41.2 µM) | 16 (≈ 20.6 µM) | 16 (≈ 20.6 µM) | 16 (≈ 20.6 µM) | 32 (≈ 41.2 µM) | 8 (≈ 10.3 µM) | 32 (≈ 41.2 µM) | 16 (≈ 20.6 µM) | 4 (≈ 5.15 µM) | 8 (≈ 10.3 µM)
CC[C@H]1OC(=O)C[C@@H](O)[C@H](C)[C@@H](O[C@@H]2O[C@H](C)[C@@H](O)[C@H](N(C)C)[C@H]2O)[C@@H](CCN(C)Cc2cn(-c3cnc4ccccc4c3)nn2)C[C@@H](C)C(=O)/C=C/C(C)=C/[C@@H]1CO | 4 (≈ 4.87 µM) | 2 (≈ 2.44 µM) | 4 (≈ 4.87 µM) | 8 (≈ 9.74 µM) | 2 (≈ 2.44 µM) | 0.125 (≈ 0.152 µM) | 0.5 (≈ 0.609 µM) | 4 (≈ 4.87 µM) | 1 (≈ 1.22 µM) | 0.25 (≈ 0.304 µM)
CC[C@H]1OC(=O)C[C@@H](O)[C@H](C)[C@@H](O[C@@H]2O[C@H](C)[C@@H](O)[C@H](N(C)C)[C@H]2O)[C@@H](CCN(C)Cc2cn(-c3cnc4ccccc4c3)nn2)C[C@@H](C)C(=O)/C=C/C(C)=C/[C@@H]1CN1CCCCC1 | 1 (≈ 1.13 µM) | 2 (≈ 2.25 µM) | 2 (≈ 2.25 µM) | 8 (≈ 9.01 µM) | 1 (≈ 1.13 µM) | 0.5 (≈ 0.563 µM) | 0.5 (≈ 0.563 µM) | 2 (≈ 2.25 µM) | 0.5 (≈ 0.563 µM) | 0.25 (≈ 0.281 µM)
CC[C@H]1OC(=O)C[C@@H](O)[C@H](C)[C@@H](O[C@@H]2O[C@H](C)[C@@H](O)[C@H](N(C)C)[C@H]2O)[C@@H](CCN(Cc2ccc(OC)cc2)Cc2cn(-c3cnc4ccccc4c3)nn2)C[C@@H](C)C(=O)/C=C/C(C)=C/[C@@H]1CN1CC(C)CC(C)C1 (some centres undefined) |  | 16 (≈ 15.7 µM) |  | 32 (≈ 31.3 µM) |  |  |  | 16 (≈ 15.7 µM) | 2 (≈ 1.96 µM) | 
CC[C@H]1OC(=O)C[C@@H](O)[C@H](C)[C@@H](O[C@@H]2O[C@H](C)[C@@H](O)[C@H](N(C)C)[C@H]2O)[C@@H](CCN(Cc2ccc(OC)cc2)Cc2cn(-c3cnc4ccccc4c3)nn2)C[C@@H](C)C(=O)/C=C/C(C)=C/[C@@H]1CO |  | 16 (≈ 17.3 µM) |  | 32 (≈ 34.5 µM) |  |  |  | 8 (≈ 8.63 µM) | 0.25 (≈ 0.27 µM) | 
CC[C@H]1OC(=O)C[C@@H](O)[C@H](C)[C@@H](O[C@@H]2O[C@H](C)[C@@H](O)[C@H](N(C)C)[C@H]2O)[C@@H](CCN(Cc2ccc(O)c(OC)c2)Cc2cn(-c3cnc4ccccc4c3)nn2)C[C@@H](C)C(=O)/C=C/C(C)=C/[C@@H]1CO |  | 16 (≈ 17 µM) |  | 16 (≈ 17 µM) |  |  |  | 16 (≈ 17 µM) | 0.5 (≈ 0.53 µM) | 
CC[C@H]1OC(=O)C[C@@H](O)[C@H](C)[C@@H](O[C@@H]2O[C@H](C)[C@@H](O)[C@H](N(C)C)[C@H]2O)[C@@H](CCN(Cc2cncnc2)Cc2cn(-c3cnc4ccccc4c3)nn2)C[C@@H](C)C(=O)/C=C/C(C)=C/[C@@H]1CO |  | 32 (≈ 35.6 µM) |  | 32 (≈ 35.6 µM) |  |  |  | 32 (≈ 35.6 µM) | 0.5 (≈ 0.556 µM) | 
CC[C@H]1OC(=O)C[C@@H](O)[C@H](C)[C@@H](O[C@@H]2O[C@H](C)[C@@H](O)[C@H](N(C)C)[C@H]2O)[C@@H](CCN(Cc2ccc(OC)cc2)Cc2cn(-c3cnc4ccccc4c3)nn2)C[C@@H](C)C(=O)/C=C/C(C)=C/[C@@H]1CN(CC)CC |  | 8 (≈ 8.14 µM) |  | 16 (≈ 16.3 µM) |  |  |  | 4 (≈ 4.07 µM) | 0.5 (≈ 0.509 µM) | 
